From ChEMBL document CHEMBL5724696, “Autophagy assay results for EUbOPEN Chemogenomics Library” (2024)

Legend:
Assay type in all cases: functional, Homo sapiens
TERT-RPE1 = assay: (§1) Here: values are normalized to the negative (DMSO; defined as 0% autophagy induction) and positive (250nM Torin1; mTOR inhibitor; defined as maximal inducer of autophagy = 100%) control compounds and represented as % of autophagy induction. […] The impact of autophagy induction on cells is complex and depends on the affected target. As such, the magnitude of a phenotype may not be equally mirrored in the %-value of autophagy induction and vice versa. The dynamics of the induction may indicate the mode of activation: e.g. activation via phosphorylation or a signaling cascade may occur fast, while activation via transcription factors may take considerably longer. […] Of note, treatment concentrations may be sub-optimal for specific compounds, leading to false negative annotations.; conditions: Culturing Media DMEM/F12 (1:1), 1 % Penicillin/Streptomycin, 10% Fetal bovin serum Add-On: No, Screening Media Control DMEM/F12 (1:1), Screening Media Samples DMEM/F12 (1:1)
U2OS [1] = assay: as §1; conditions: Culturing Media DMEM, 1 % Penicillin/Streptomycin, 10% Fetal bovin serum Add-On: No, Screening Media Control DMEM, Screening Media Samples DMEM
U2OS [2] = assay: as §1; conditions: Culturing Media DMEM, 1 % Penicillin/Streptomycin, 10% Fetal bovin serum Add-On: No, Screening Media Control DMEM, Screening Media Samples DMEM; remark: listed apart in the source
[3] = Compound Concentration 0.5 uM, Timepoint 12 hours
[4] = Compound Concentration 0.5 uM, Timepoint 24 hours
[5] = Compound Concentration 0.5 uM, Timepoint 36 hours
[6] = Compound Concentration 0.5 uM, Timepoint 60 hours
[7] = Compound Concentration 2 uM, Timepoint 12 hours
[8] = Compound Concentration 2 uM, Timepoint 24 hours
[9] = Compound Concentration 2 uM, Timepoint 36 hours
[10] = Compound Concentration 2 uM, Timepoint 60 hours
[11] = Compound Concentration 10 uM, Timepoint 12 hours
[12] = Compound Concentration 10 uM, Timepoint 24 hours
[13] = Compound Concentration 10 uM, Timepoint 36 hours
[14] = Compound Concentration 10 uM, Timepoint 60 hours

| SMILES | autophagy induction (TERT-RPE1; [3]) | autophagy induction (TERT-RPE1; [4]) | autophagy induction (TERT-RPE1; [5]) | autophagy induction (TERT-RPE1; [6]) | autophagy induction (TERT-RPE1; [7]) | autophagy induction (TERT-RPE1; [8]) | autophagy induction (TERT-RPE1; [9]) | autophagy induction (TERT-RPE1; [10]) | autophagy induction (TERT-RPE1; [11]) | autophagy induction (TERT-RPE1; [12]) | autophagy induction (TERT-RPE1; [13]) | autophagy induction (TERT-RPE1; [14]) | autophagy induction (U2OS [1]; [3]) | autophagy induction (U2OS [1]; [4]) | autophagy induction (U2OS [1]; [5]) | autophagy induction (U2OS [1]; [6]) | autophagy induction (U2OS [1]; [7]) | autophagy induction (U2OS [1]; [8]) | autophagy induction (U2OS [1]; [9]) | autophagy induction (U2OS [1]; [10]) | also measured |
| --- | --- | --- | --- | --- | --- | --- | --- | --- | --- | --- | --- | --- | --- | --- | --- | --- | --- | --- | --- | --- | --- |
| CCOC(=O)c1cc(C#N)c(N2CCC(C(=O)NS(=O)(=O)Cc3ccccc3)CC2)nc1C | -6.976% | -10.3002% | -8.825% | -14.4044% | -3.0862% | -5.808% | -6.285% | -11.624% | -2.8574% | -4.514% | -6.439% | -9.708% | -5.45% | -2.451% | -3.099% | -2.587% | 4.284% | 0.2818% | 0.3824% | -0.02347% | autophagy induction (U2OS [1]; [11]): -3.626%; autophagy induction (U2OS [1]; [12]): -2.74%; autophagy induction (U2OS [1]; [13]): -1.363%; autophagy induction (U2OS [1]; [14]): -0.00442%; autophagy induction (U2OS [2]; [3]): -1.238%; autophagy induction (U2OS [2]; [4]): -0.869%; autophagy induction (U2OS [2]; [5]): -0.6019%; autophagy induction (U2OS [2]; [6]): -13.2748%; autophagy induction (U2OS [2]; [7]): -11.375%; autophagy induction (U2OS [2]; [8]): -8.508%; autophagy induction (U2OS [2]; [9]): -7.086%; autophagy induction (U2OS [2]; [10]): -3.832%; autophagy induction (U2OS [2]; [11]): -0.3683%; autophagy induction (U2OS [2]; [12]): 1.86%; autophagy induction (U2OS [2]; [13]): -9.343%; autophagy induction (U2OS [2]; [14]): -16.8017% |
| Cc1csc(NC(=O)c2cc(F)cc(Oc3cncnc3)c2)n1 | -6.573% | -11.4508% | -15.1452% | -20.0235% | -3.733% | -9.437% | -10.535% | -13.1148% | -2.429% | -5.833% | -5.079% | -4.061% | -6.672% | -2.592% | -1.939% | -1.765% | -5.1627% | -3.72% | -2.553% | -1.843% | autophagy induction (U2OS [1]; [11]): -2.289%; autophagy induction (U2OS [1]; [12]): -0.7242%; autophagy induction (U2OS [1]; [13]): -0.5379%; autophagy induction (U2OS [1]; [14]): -1.609%; autophagy induction (U2OS [2]; [3]): -16.3524%; autophagy induction (U2OS [2]; [4]): -14.7733%; autophagy induction (U2OS [2]; [5]): -11.9866%; autophagy induction (U2OS [2]; [6]): -8.75%; autophagy induction (U2OS [2]; [7]): -9.821%; autophagy induction (U2OS [2]; [8]): -11.197%; autophagy induction (U2OS [2]; [9]): -11.4826%; autophagy induction (U2OS [2]; [10]): -11.3338%; autophagy induction (U2OS [2]; [11]): -1.626%; autophagy induction (U2OS [2]; [12]): -3.326%; autophagy induction (U2OS [2]; [13]): -2.706%; autophagy induction (U2OS [2]; [14]): -7.422% |
